Measured values published in PMC5114727, “Biological characterization of chemically diverse compounds targeting the Plasmodium falciparum coenzyme A synthesis pathway” (Parasites & Vectors, 2016).
Where “and” joins values, the source holds several entries; their conditions need not be identical. Equal values may be shown once. Read-outs that look alike come from different tables or passages of the source.

Experiments:
[1] = test system: 3T3 cells; assay: 3T3 host cell cytotoxicity (part of T. cruzi amastigote image-based assay); parameters: species or system mouse; settings: bound = highest concentration with < 50 % inhibition; read-out: 3T3 cytotoxicity IC50 ± SEM
From the text: (§1) An initial indication of compound selectivity over human cells had previously been obtained through comparison of the compounds’ IC50 values against P. falciparum asexual stages and HEK293 [22]. In the present study, the selectivity investigation was extended to a small panel of human cancer cell lines, namely the estrogen receptor (ER)-positive breast cancer cell line MCF7, the ER-negative MDA-MB-231, as well as the human prostate cancer line, PC-3. Additionally, the cytotoxic effects on mouse embryonic fibroblast cell line 3T3, which serves as the host cell for T. cruzi in our image-based amastigote assay, were investigated.
(§2) Cytotoxicity of the compounds was assessed against a panel of human cancer cell lines, namely the estrogen receptor (ER)-positive breast cancer cell line MCF7, the ER-negative MDA-MB-231 and the prostate cancer line PC-3. All the cell lines were purchased from ATCC and maintained as previously described. Two biological replicates consisting of two technical replicates each were performed to generate concentration response curves (CRC) with a final highest concentration of 40 μM. A resazurin-based assay was utilized to determine cell viability as described earlier. Additionally, the cytotoxic effects on the mouse embryonic fibroblast cell line 3T3 were assessed as part of the Trypanosoma cruzi amastigote image-based assay as outlined in [35].

[2] = test system: MCF7 cells; assay: Resazurin cytotoxicity assay, MCF7; assay type: cell-based, human; settings: highest concentration 40 μM; bound = highest concentration with < 50 % inhibition; read-out: MCF7 cytotoxicity IC50 ± SEM
From the text: as §1, §2

[3] = test system: HEK293 cells; settings: as previously reported; read-out: HEK293 cytotoxicity IC50 ± SEM; cited from earlier work
[4] = test system: panel of human cancer cell lines (MCF7, MDA-MB-231, PC-3); assay: Cytotoxicity across the panel of cell lines; assay type: cell-based; settings: for cytotoxicity against any of the cell lines investigated (in words): up to the highest tested concentration of 40 μM; for IC50: MCF7, MDA-MB-231, PC-3, read-out: IC50 range against the cancer cell lines
From the text: as §1, §2

[5] = test system: P. falciparum late stage gametocytes (PfLG, stages IV-V); assay: Chemical rescue with CoA pathway intermediates, late stage gametocytes; assay type: cell-based, Plasmodium falciparum; settings: inhibitor at IC80; for Percent rescue ± SEM by CoA, PfLG: CoA 1.8 mM; for Percent rescue ± SEM by dephospho CoA, PfLG: dP-CoA 2 mM; for Percent rescue ± SEM by pantethine, PfLG: pantethine 5 mM; for Percent rescue ± SEM by pantothenate, PfLG: pantothenate 312.5 μM
Experimental: Pantothenate is the first substrate of the pathway (Fig. 1) and its addition was intended to rescue the action of possible competitive inhibitors of the first enzyme, PanK. […] It is not known, whether P. falciparum is capable of pantetheine phosphorylation for utilization in CoA synthesis. […] Finally, the rescue ability of dP-CoA, the final substrate of CoA synthesis, was tested. […] Inhibitors competing with dP-CoA for DPCK binding were expected to be displaced, thereby rescuing parasite survival, by dP-CoA supplementation in a concentration dependent manner.
An imaging based assay was utilised to assess the chemical rescue on asexual stages of P. falciparum as described previously. All the pathway intermediates were purchased from Sigma. CoA and dP-CoA were dissolved in sterile distilled water to obtain a 20 mM stock solution, which was then aliquoted and stored at -20 °C until use. […] Each pathway intermediate was tested on the parasites at a range of concentrations to assess potential toxicity. […] On early stage P. falciparum gametocytes the same concentrations as for CoA were tested for dP-CoA; against asexual blood stage P. falciparum, late stage gametocytes and Trypanosoma b. brucei five dP-CoA concentrations were tested (2 mM, 1.5 mM, 1 mM, 0.75 mM and 0.5 mM).
The same concentration ranges of the CoA pathway intermediates were supplemented to parasites treated with the experimental compounds. The inhibitors were used at their respective final assay concentration of IC80 (as determined previously in the corresponding P. falciparum development stage or T. b. brucei assay). […] The negative control used in each assay was 0.4% DMSO, whilst the positive control was 2 μM artemisinin for asexual P. falciparum blood stages and 5 μM puromycin for all gametocyte stages and T. b. brucei. The percentage growth of the respective parasites following compound treatment was determined using Microsoft ® Excel 2010, and compared with their controls. All rescue assays were performed as two independent experiments each in duplicate point.

[6] = test system: T. b. brucei trypomastigote; assay: T. b. brucei resazurin (Alamar Blue) viability assay; assay type: cell-based, Trypanosoma brucei brucei
Experimental: Compound activity against two members of another clinically important group of parasites, the kinetoplastids T. cruzi and T. b. brucei was determined. The sensitive high content imaging assay used to determine compound activity against T. cruzi assesses the intracellular amastigote life form of the parasite in the 3T3 host cell. […] The T. b. brucei assay employs the REDOX indicator Alamar Blue to assess viability, which was developed into a 384-well assay format.
Compound activity against T. b. brucei was assessed in a resazurin-based viability assay in concentration-response assays, without technical repeats, in two experimental replicates at a highest concentration of 40 μM, as previously described.

[7] = target: late stage gametocytes (stage IV to V) of P. falciparum line NF54^Pfs16; assay: Gametocyte luciferase assay, late stage; assay type: cell-based, Plasmodium falciparum
From the text: To investigate a potential role of CoA biosynthesis for host to vector transmission of the malaria parasite, we investigated the activity of our compounds on P. falciparum gametocytes, the sexual stages of P. falciparum, essential for malaria transmission. […] Parasite stage-specificity and gametocytocidal activity of the compounds was therefore investigated, utilizing a luciferase-based approach on early stage (development from stage I to IIb/III [30]) and late stage (IV to V [51]) gametocytes.
(§3) Induction of P. falciparum gametocyte differentiation and gametocyte culturing were performed as previously described. Compound activity against early stage gametocytes (covering the development from stage I to IIb/III) and late stage gametocytes (stage IV to V) of the recombinant P. falciparum line NF54^Pfs16 was assessed in concentration-response assays, in two experimental replicates consisting of two technical repeats each, at a highest concentration of 40 μM, as described earlier.

[8] = test system: P. falciparum developmental stages; assay: Activity across all P. falciparum life-cycle stages tested (asexual, early and late gametocytes); assay type: cell-based, Plasmodium falciparum; settings: early and late stage gametocytes; for IC50: read-out: IC50 range across all P. falciparum life-cycle stages tested
Experimental: as §3

[9] = test system: P. falciparum asexual blood stage; settings: as previously reported; read-out: Asexual P. falciparum IC50 ± SEM; cited from earlier work
[10] = test system: MDA-MB-231 cells; assay: Resazurin cytotoxicity assay, MDA-MB-231; assay type: cell-based, human; settings: highest concentration 40 μM; bound = highest concentration with < 50 % inhibition; read-out: MDA-MB-231 cytotoxicity IC50 ± SEM
From the text: as §1, §2

[11] = test system: P. falciparum pantothenate kinase (PfPanK); assay: Radiometric pantothenate phosphorylation assay in P. falciparum lysate; assay type: biochemical, Plasmodium falciparum; settings: 100 μM single concentration, all compounds (Figure S2a)
Experimental: A radiometric assay, which allows measurement of the phosphorylation of various substrates by kinases present in P. falciparum lysates [16, 39], was used to test the effect of the chemical compounds of interest at 100 μM concentration on PanK activity.
The ability of the test compounds to inhibit P. falciparum pantothenate kinase (PfPanK) was assessed with a radiometric pantothenate phosphorylation assay as described previously [39]. In short, the phosphorylation of [^14C] pantothenate by P. falciparum lysates was measured in the presence or absence of a single concentration (100 μM, two biological replicates in duplicate technical repeats) of each test compound. […] P. falciparum lysate was prepared from trophozoite stage parasites isolated from their host RBC by treatment with 0.05% (w/v) saponin, and washed (three times) in HEPES-buffered saline (125 mM NaCl, 5 mM KCl, 20 mM D-glucose, 25 mM HEPES, 1 mM MgCl2, pH 7.1). Lysates were prepared in 10 mM potassium phosphate, pH 7.4, the concentration of cell lysates was determined from cell counts with an improved Neubauer hemocytometer, and aliquots of lysate were stored at -20 °C.[^14C] pantothenate, [^14C]

[12] = read-out: Late stage gametocyte IC50
[13] = highest concentration 40 μM, read-out: Late stage gametocyte IC50 ± SEM

Compound	IC50 [1]	IC50 [2]	IC50 [3]	cytotoxicity against any of the cell lines investigated (in words) [4]	Percent rescue ± SEM by pantethine, PfLG [5]	Percent rescue ± SEM by pantothenate, PfLG [5]	IC50 [7, 12]	activity against all P. falciparum development stages tested (in words) [8]	IC50 [8]	IC50 [9]	IC50 [10]	IC50 [4]	IC50 ([6]; read-out: T. b. brucei IC50)	IC50 [7, 13]	other results
CC1=CC(=O)C(C(C)C)=C/C1=N/OS(=O)(=O)c1ccccc1 [STK 740987]	> 20000 nM	> 40000 nM	> 40000 nM	no or only negligible cytotoxicity	No	No	460 nM	sub-micromolar IC50 values	380 to 460 nM	380 ± 60 nM	> 40000 nM	–	–	–	Percent rescue ± SEM by CoA, PfLG [5]: 53.1 ± 0.5%; Percent rescue ± SEM by CoA, PfLG ([5]; listed as STK740987): approximately 50%; Percent rescue ± SEM by dephospho CoA, PfLG [5]: 50.3 ± 0.8%; Percent rescue ± SEM by dephospho CoA, PfLG ([5]; listed as STK740987): approximately 50%; IC50 ([6]; highest concentration 40 μM, read-out: T. b. brucei trypomastigote IC50 ± SEM): 1020 nM and 1000 nM
Cc1csc(Sc2ncnc3sccc23)n1 [Amb180780]	> 40000 nM	> 40000 nM	~40000 nM	no or only negligible cytotoxicity	No	No	70 nM	sub-micromolar IC50 values	60 to 120 nM	120 ± 20 nM	> 40000 nM	–	–	–	T. b. brucei trypomastigote percent inhibition at the highest concentration tested ([6]; 40 µM, given if an IC50 could not be calculated): 100%; PanK inhibition [11]: did not reveal inhibition of PanK
CC(=O)C1=C(c2ccccc2)C(=O)c2ccccc2C1=O [Amb4317088]	8600 ± 960 nM	4600 ± 160 nM	2330 ± 120 nM	–	No	No	–	moderate, single digit micromolar activity	–	1230 ± 60 nM	870 ± 40 nM	870 to 4600 nM	160 nM	2240 nM and 2200 nM	–
CC(=O)c1ccc2c3c(onc13)-c1ccccc1C2=O [Amb3377585]	–	9100 ± 620 nM	2750 ± 180 nM	–	–	–	–	–	–	150 ± 10 nM	5600 ± 330 nM	5000 to 9000 nM	200 nM	6220 ± 2500 nM	–
